Data published in patent EP4610262A1, “MACROCYCLIC COMPOUND AS CDK9 INHIBITOR AND USE THEREOF” (Artivila Biopharma, priority 2022, dated 2024).
pIC50: −log10 of the molar value. Read-outs that look alike come from different tables or passages of the source.

What was measured:
Assay type in all cases: biochemical
JAK2 = JAK2 (Homo sapiens, UniProt O60674); experiment: Kinase selectivity, inhibition rate at 10 nM (caliper mobility shift assay); settings: compound at 10 nM
Experimental: (§1) Compounds were tested at a concentration of 10 nM with detection in duplicate wells, or tested at 10 concentrations starting from 10 µM with three-fold serial dilutions, with detection in duplicate wells.
(§2) The inhibitory effect of the compounds on the activity of CDK9 protein kinase was detected by the caliper mobility shift assay method. 250 nL of the compound at 100-fold final concentration was transferred to a target 384-well-plate with a dispenser Echo 550. A kinase solution at 2.5-fold final concentration was prepared using 1× kinase buffer. 10 µL of the kinase solution at 2.5-fold final concentration was added to the compound well and positive control well respectively. 10 µL of 1× kinase buffer was added to the negative control well. The 384-well plate was centrifuged at 1000 rpm for 30 seconds and incubated at room temperature for 10 minutes. A mixed solution of ATP and kinase substrate at 5/3-fold final concentration was prepared with 1× kinase buffer, and to the 384-well plate was added with 15 µL per well of the mixed solution of ATP and substrate at 5/3-fold final concentration to start the reaction. The plate was centrifuged at 1000 rpm for 30 seconds, shaken to mix evenly, and incubated at room temperature for a corresponding time. 30 µL of detection stopping solution was added to terminate the kinase reaction. The 384-well plate was centrifuged at 1000 rpm for 30 seconds and shaken to mix evenly. The conversion rate was read with Caliper EZ Reader. The percent conversion inhibition rate = (% positive control conversion rate mean - % sample conversion rate / (% positive control conversion rate mean - % negative control conversion rate mean). Among them: negative control wells represent the conversion rate readings of kinase buffer background wells; positive control wells represent the conversion rate readings of wells without inhibition by compound. With the log value of concentration as the x-axis and the percentage inhibition rate as the y-axis, a dose-response curve was fitted using the log (inhibitor) vs. response -Variable slope of the analysis software GraphPad Prism 5 to obtain the IC50 value of each compound on enzyme activity. Calculation formula: y=Bottom + (Top-Bottom)/(1+10^((LogIC50-x) × hillslope)), x: logarithm of inhibitor concentration; y: % inhibition rate.
(§3) According to the description of the above experiment on kinase activity inhibition, some compounds were tested for their selective inhibition rate against the kinases of CDK7, CDK9, JAK1, JAK2, JAK3, ITK, RET, TYK2, and LRRK2 at 10 nM. The results are shown in Table 3 below: (Inhibition rate range: A>50%; B: 25-49%; C: <25%): […]

JAK1 = JAK1 (Homo sapiens, UniProt P23458); experiment: as above; settings: compound at 10 nM
Experimental: as §1, §2, §3

RET = RET (Homo sapiens, UniProt P07949); experiment: as above; settings: compound at 10 nM
RET, sequence (P07949 29-1114): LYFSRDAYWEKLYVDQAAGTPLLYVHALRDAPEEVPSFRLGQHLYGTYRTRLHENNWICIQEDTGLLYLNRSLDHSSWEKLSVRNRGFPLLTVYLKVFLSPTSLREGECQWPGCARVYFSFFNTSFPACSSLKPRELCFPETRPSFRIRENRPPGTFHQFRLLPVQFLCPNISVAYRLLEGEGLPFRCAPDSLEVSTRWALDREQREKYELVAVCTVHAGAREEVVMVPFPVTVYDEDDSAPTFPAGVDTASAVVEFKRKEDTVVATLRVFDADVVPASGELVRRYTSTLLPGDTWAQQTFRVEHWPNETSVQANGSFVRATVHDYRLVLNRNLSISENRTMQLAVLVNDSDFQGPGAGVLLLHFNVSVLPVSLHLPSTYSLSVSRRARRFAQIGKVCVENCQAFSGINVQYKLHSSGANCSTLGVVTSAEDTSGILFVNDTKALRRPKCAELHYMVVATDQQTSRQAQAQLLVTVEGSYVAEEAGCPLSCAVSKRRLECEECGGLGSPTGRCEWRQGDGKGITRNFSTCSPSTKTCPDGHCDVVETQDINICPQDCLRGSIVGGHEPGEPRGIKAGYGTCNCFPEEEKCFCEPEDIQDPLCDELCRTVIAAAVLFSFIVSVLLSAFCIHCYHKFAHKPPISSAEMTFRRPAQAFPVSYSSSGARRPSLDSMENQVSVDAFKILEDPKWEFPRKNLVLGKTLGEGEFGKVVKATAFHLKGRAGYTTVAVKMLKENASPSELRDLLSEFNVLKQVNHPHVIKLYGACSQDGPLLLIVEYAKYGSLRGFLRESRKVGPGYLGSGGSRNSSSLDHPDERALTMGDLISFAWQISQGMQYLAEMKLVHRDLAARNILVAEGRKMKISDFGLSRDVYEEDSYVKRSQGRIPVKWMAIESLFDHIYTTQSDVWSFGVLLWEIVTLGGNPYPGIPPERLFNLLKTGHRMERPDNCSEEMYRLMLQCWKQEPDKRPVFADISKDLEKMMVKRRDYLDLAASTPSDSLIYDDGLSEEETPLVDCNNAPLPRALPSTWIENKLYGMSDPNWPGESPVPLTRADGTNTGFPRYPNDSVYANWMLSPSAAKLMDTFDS
Experimental: as §1, §2, §3

ITK = ITK (Homo sapiens, UniProt Q08881); experiment: as above; settings: compound at 10 nM
Experimental: as §1, §2, §3

JAK3 = JAK3 (Homo sapiens, UniProt P52333); experiment: as above; settings: compound at 10 nM
Experimental: as §1, §2, §3

CDK9 = CDK9 (Homo sapiens, UniProt P50750); experiment: Inhibition of CDK9 kinase activity (caliper mobility shift assay); settings: for inhibition at 0.01 µM: compound at 10 nM
CDK9, sequence (P50750 whole entry): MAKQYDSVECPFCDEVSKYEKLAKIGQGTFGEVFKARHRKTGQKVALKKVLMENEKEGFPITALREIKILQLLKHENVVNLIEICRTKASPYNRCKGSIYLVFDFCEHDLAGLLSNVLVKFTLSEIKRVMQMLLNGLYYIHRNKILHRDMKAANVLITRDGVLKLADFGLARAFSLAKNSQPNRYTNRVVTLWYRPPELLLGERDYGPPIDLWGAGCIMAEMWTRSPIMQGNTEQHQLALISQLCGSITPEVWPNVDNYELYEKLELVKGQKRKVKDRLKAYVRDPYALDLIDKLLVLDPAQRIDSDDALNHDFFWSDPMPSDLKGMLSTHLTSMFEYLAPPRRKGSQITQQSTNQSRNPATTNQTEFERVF
CDK9, sequence (O60563 whole entry partner): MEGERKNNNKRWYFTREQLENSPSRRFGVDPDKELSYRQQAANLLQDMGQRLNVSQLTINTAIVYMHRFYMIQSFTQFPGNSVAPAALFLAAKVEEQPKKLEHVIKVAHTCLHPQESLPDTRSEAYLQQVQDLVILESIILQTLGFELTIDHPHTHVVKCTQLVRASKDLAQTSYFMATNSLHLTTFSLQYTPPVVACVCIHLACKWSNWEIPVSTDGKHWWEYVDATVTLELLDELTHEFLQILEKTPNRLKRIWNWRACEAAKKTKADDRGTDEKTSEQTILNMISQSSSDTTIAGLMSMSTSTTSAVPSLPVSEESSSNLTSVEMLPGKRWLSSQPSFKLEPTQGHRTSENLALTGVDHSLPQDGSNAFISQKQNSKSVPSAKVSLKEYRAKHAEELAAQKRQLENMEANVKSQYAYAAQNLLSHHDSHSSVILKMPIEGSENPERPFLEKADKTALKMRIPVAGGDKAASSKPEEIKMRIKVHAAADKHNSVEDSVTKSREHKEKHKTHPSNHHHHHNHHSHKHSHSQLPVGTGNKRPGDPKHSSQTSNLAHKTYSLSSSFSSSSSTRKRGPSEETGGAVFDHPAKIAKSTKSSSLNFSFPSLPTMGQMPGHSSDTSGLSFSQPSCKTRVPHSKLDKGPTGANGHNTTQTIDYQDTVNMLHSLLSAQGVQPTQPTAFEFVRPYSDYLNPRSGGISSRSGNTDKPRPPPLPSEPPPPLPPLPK
Experimental: as §1, §2

CDK3/CycE1 = CDK3/CycE1 (Homo sapiens, UniProt Q00526); experiment: CDK kinase selectivity (HTRF / ADP-Glo); settings: compound at 0.1 µM; read-out: Inhibition rate CDK3/CycE1
CDK3/CycE1, sequence (P24864 whole entry): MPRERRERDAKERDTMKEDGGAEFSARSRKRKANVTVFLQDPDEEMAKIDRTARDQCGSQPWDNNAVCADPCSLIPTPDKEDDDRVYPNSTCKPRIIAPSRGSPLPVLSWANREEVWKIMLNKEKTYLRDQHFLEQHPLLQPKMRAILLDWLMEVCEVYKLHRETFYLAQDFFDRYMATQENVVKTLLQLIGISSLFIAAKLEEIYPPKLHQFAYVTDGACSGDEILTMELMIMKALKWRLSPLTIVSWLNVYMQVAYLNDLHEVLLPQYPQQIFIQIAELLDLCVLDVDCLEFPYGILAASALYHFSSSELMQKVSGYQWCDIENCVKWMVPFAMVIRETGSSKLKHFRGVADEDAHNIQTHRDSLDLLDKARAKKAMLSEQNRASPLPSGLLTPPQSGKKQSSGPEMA
CDK3/CycE1, sequence (Q00526 whole entry): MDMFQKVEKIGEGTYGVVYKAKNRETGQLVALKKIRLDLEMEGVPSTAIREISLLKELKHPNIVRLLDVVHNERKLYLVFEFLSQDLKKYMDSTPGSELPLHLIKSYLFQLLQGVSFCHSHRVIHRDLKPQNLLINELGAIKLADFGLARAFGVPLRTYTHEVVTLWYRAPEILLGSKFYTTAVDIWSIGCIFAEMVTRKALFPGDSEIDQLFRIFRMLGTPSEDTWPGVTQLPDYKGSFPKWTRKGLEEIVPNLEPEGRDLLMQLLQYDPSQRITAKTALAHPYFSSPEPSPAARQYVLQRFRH
Experimental: (§4) The selectivity of the test compounds against CDK kinases was detected. The compounds were tested at a concentration of 0.1 µM, and the inhibition rate of CDK kinases by the compounds was detected in duplicate wells, mainly using HTRF and ADP-Glo detection methods.
(§5) The HTRF detection method was conducted as follows: 2-fold ATP/substrate solution and 2-fold kinase/metal ion solution were prepared respectively with a kinase reaction buffer, and 25 nL of diluted compound solution was transferred to a 384-well detection plate with Echo 655. After centrifugation, the plate was added with 2.5 µL of 2-fold kinase/metal ion solution and incubated at 25°C for 10 minutes. After 10 minutes, 2.5 µL of 2-fold substrate/ATP solution was added to the 384-well detection plate and incubated at 25°C for 60 minutes. 2 kinase detection reagent (XL665 and antibody) was prepared with detection buffer, and 5 µL of kinase detection reagent was added to the 384-well detection plate and incubated at 25°C for 60 minutes. The fluorescence signals at 620 nm (Cryptate) and 665 nm (XL665) were read by the microplate reader, and the ratio and the inhibition rate of kinase activity by the compound were calculated.
(§6) The ADP-Glo detection method was conducted as follows. 2-fold ATP/substrate solution and 2-fold kinase/metal ion solution were prepared respectively with a kinase reaction buffer. 20 nL of diluted compound solution was transferred to a 384-well detection plate by Echo 655. After centrifuged, the 384-well detection plate was added with 2 µL of 2 × kinase/metal ion solution, and incubated at 25°C for 10 minutes. After 10 minutes, the 384-well detection plate was added with 2 µL of 2 × substrate/ATP solution and incubated at 25°C for 60 minutes. 4 µL of ADP-Glo reagent was added to each well and incubated at room temperature for 40 minutes. 10 µL of ADP detection reagent was added to each well and incubated at room temperature for 40 minutes. The chemiluminescent signal was detected with a microplate reader and the inhibition rate of kinase activity was calculated.

CDK1/CycE1 = CDK1/CycE1 (Homo sapiens, UniProt P06493); experiment: CDK kinase selectivity (HTRF / ADP-Glo); settings: compound at 0.1 µM; read-out: Inhibition rate CDK1/CycE1
CDK1/CycE1, sequence (P24864 whole entry): as the sequence (P24864 whole entry) above
CDK1/CycE1, sequence (P06493 whole entry): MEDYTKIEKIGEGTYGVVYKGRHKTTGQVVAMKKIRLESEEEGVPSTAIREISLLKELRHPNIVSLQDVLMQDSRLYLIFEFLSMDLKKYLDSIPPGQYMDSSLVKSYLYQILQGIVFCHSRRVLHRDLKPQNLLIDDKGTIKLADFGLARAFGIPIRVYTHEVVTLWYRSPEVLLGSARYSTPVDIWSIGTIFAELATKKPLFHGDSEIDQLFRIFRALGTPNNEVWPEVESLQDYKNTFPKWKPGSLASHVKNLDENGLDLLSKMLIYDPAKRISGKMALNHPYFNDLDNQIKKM
Experimental: as §4, §5, §6

CDK7/CycH/MAT1 = CDK7/CycH/MAT1 (Homo sapiens, UniProt P50613); experiment: CDK kinase selectivity (HTRF / ADP-Glo); settings: compound at 0.1 µM; read-out: Inhibition rate CDK7/CycH/MAT1
CDK7/CycH/MAT1, sequence (P50613 whole entry, species assumed): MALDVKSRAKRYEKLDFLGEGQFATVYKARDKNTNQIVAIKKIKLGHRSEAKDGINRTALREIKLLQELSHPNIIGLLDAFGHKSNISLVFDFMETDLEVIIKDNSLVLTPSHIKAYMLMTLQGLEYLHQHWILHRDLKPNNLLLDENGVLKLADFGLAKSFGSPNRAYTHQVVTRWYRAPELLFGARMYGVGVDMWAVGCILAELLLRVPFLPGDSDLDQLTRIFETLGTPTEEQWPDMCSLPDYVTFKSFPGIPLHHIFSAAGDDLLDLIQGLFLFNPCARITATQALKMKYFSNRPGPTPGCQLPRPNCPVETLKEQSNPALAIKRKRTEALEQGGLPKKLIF
CDK7/CycH/MAT1, sequence (P51946 whole entry partner, species assumed): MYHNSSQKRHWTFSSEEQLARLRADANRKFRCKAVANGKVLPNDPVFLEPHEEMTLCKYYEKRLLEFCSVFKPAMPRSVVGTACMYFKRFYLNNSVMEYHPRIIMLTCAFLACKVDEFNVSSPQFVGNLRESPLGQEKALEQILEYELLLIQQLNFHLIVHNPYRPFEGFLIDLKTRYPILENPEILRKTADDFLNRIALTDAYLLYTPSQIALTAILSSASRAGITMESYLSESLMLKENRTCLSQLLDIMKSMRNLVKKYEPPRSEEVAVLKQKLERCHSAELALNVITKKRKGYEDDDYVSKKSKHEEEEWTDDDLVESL
CDK7/CycH/MAT1, sequence (P51948 whole entry partner, species assumed): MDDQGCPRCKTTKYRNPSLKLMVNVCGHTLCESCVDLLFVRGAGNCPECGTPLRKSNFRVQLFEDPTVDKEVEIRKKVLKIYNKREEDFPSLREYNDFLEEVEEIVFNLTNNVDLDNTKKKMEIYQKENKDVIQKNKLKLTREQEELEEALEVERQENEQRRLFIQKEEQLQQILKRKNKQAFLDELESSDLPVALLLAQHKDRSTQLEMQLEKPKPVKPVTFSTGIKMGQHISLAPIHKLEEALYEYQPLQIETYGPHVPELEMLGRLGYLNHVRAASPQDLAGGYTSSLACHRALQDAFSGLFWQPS
Experimental: as §4, §5, §6

CDK5/p35NCK = CDK5/p35NCK (Homo sapiens, UniProt Q00535); experiment: CDK kinase selectivity (HTRF / ADP-Glo); settings: compound at 0.1 µM; read-out: Inhibition rate CDK5/p35NCK
Experimental: as §4, §5, §6

CDK4/cycD1 = CDK4/cycD1 (Homo sapiens, UniProt P11802); experiment: CDK kinase selectivity (HTRF / ADP-Glo); settings: compound at 0.1 µM; read-out: Inhibition rate CDK4/cycD1
CDK4/cycD1, sequence (P11802 whole entry): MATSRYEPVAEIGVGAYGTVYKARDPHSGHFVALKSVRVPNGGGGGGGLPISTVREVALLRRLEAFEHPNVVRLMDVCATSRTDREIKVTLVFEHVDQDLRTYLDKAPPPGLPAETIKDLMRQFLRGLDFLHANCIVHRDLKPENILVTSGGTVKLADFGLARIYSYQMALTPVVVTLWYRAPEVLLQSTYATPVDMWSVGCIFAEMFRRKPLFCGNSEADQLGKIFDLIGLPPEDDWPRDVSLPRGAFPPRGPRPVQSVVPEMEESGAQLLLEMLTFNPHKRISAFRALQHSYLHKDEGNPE
CDK4/cycD1, sequence (P24385 whole entry partner): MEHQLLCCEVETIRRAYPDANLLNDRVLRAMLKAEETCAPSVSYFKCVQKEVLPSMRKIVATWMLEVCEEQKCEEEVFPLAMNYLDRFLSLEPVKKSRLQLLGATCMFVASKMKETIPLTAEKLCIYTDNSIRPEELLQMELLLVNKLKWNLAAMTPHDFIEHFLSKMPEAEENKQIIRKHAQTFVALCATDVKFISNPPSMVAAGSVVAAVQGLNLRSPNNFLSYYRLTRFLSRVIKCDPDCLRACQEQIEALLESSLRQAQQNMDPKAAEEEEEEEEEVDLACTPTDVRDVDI
Experimental: as §4, §5, §6

CDK6/CycD 1 = CDK6/CycD 1 (Homo sapiens, UniProt Q00534); experiment: CDK kinase selectivity (HTRF / ADP-Glo); settings: compound at 0.1 µM; read-out: Inhibition rate CDK6/CycD 1
Experimental: as §4, §5, §6

CDK9/CycT1 = CDK9/CycT1 (Homo sapiens, UniProt P50750); experiment: CDK kinase selectivity (HTRF / ADP-Glo); settings: compound at 0.1 µM; read-out: Inhibition rate CDK9/CycT1
CDK9/CycT1, sequence (P50750 whole entry, species assumed): as the sequence (P50750 whole entry) above
CDK9/CycT1, sequence (O60563 whole entry partner, species assumed): as the sequence (O60563 whole entry partner) above
Experimental: as §4, §5, §6

CDK16/CyclinY = CDK16/CyclinY (Homo sapiens, UniProt Q00536); experiment: CDK kinase selectivity (HTRF / ADP-Glo); settings: compound at 0.1 µM; read-out: Inhibition rate CDK16/CyclinY
Experimental: as §4, §5, §6

SMILES: Clc1cnc2nc1NCCCCCNCc1cccc(c1)N2 [Compound 8, 1^5-chloro-2,5,11-triaza-1(2,4)-pyrimidina-3(1,3)-benzenacyclodecaphane]
- inhibition at 0.01 µM (JAK2): 25 to 49%
- inhibition at 0.01 µM (JAK1): < 25%
- inhibition at 0.01 µM (RET): < 25%
- inhibition at 0.01 µM (ITK): < 25%
- inhibition at 0.01 µM (JAK3): < 25%
- pIC50 (CDK9; 10 concentrations from 10 µM, three-fold dilutions): > 7.00
- inhibition at 0.01 µM (CDK9; selectivity panel Table 3, read-out: Inhibition rate CDK9): > 50%
- inhibition at 0.01 µM (CDK9; read-out: Inhibition rate on CDK9 kinase activity): > 50%
- inhibition at 0.1 µM (CDK3/CycE1): 50 to 75%
- inhibition at 0.1 µM (CDK1/CycE1): < 50%
- inhibition at 0.1 µM (CDK7/CycH/MAT1): 50 to 75%
- inhibition at 0.1 µM (CDK5/p35NCK): < 50%
- inhibition at 0.1 µM (CDK4/cycD1): < 50%
- inhibition at 0.1 µM (CDK6/CycD 1): < 50%
- inhibition at 0.1 µM (CDK9/CycT1): > 95%
- inhibition at 0.1 µM (CDK16/CyclinY): 50 to 75%
